Results reported in patent publication US20210181109A1 (FUJIFILM Corporation, priority 2018, published 2021).

Columns and labels:
[1] = NAL depletion percent, HPLC-fluorescence detection
Experimental: (§1) 1) To a 50 mL vessel, 12.6 mg (±0.1 mg) of NAL is weighed; to this, a 25 mL measuring pipet is used to add 20 mL of 100 mmol/L phosphate buffer (pH: 10.2); and the content is gently stirred using a test tube mixture to achieve dissolution (2 mmol/L NAL solution). 2) To a 500 mL vessel, 149.5 mL of this buffer is added using a 50 mL measuring pipet; to this, 0.5 mL of the above-described 2 mmol/L NAL solution is added; and the content is mixed by inversion to achieve 300-fold dilution (6.667 μmol/L).
(§2) The test substance undiluted solution is defined as an “undiluted solution”, and used. Incidentally, this “undiluted solution” may be appropriately diluted to, for example, 1/10, 1/100, or 1/1000, using an appropriate solvent, and the resultant solution may be used.
(§3) Subsequently, the solution having the maximum dissolution concentration is defined as an “undiluted solution”, and tested. Incidentally, this “undiluted solution” may be appropriately diluted to, for example, 1/10, 1/100, or 1/1000, using an appropriate solvent, and the resultant solution may be used.
(§4) The test substance is prepared at 1 mmol/L in any of solvents that are water, acetonitrile, acetone, and a 5 mass % dimethyl sulfoxide (DMSO)/acetonitrile solution and used as a test substance solution. As the solvent, a solvent in which the test substance dissolves at 1 mmol/L is used; when the test substance is soluble in a plurality of solvents, the solvent is selected in the following order of decreasing precedence: water, acetonitrile, acetone, and 5 mass % DMSO/acetonitrile.
(§5) Test substance solutions are prepared on a 96-well plate (U96 PP-0.5 ML NATURAL, Thermo Fisher Scientific Inc. (NUNC)) mainly using a 12-channel pipette, and a reagent is added in accordance with the following formula.
(§6) Nucleophilic reagent (NAC and NAL): 150 μL
(§7) Test substance solution: 50 μL
(§8) The plate is tightly sealed using a plate sealing (Resistant embossed seal, SHIMADZU GLC Ltd.), and stirred using a plate shaker (Titramax 100, Heidolph Instruments GmbH & CO. KG). The plate is subjected to spinning down using a centrifuge, and then to incubation at 25° C., for 24 hours, in a light-shielded state.
(§9) After the incubation for 24 hours, the plate sealing is removed; to each sample, 50 µL of the reaction stopping solution is added to stop the reaction.
(§10) The HPLC measurement conditions for the nucleophilic reagents are as follows.
(§11) From the average values (each, n=3) of peak areas of the post-reaction unreacted NAC or NAL and the blank-test (after performing the reaction step without addition of the test substances) NAC or NAL, the following formula is used to calculate the depletion percent of NAC or NAL.
(§12) NAL depletion percent (% depletion)=[1−(Average value of peak areas of post-reaction unreacted NAL/Average value of peak areas of blank-test (after performing the reaction step without addition of the test substances) NAL)]×100
(§13) The average value of peak areas of post-reaction unreacted NAL is the average value of areas obtained by measuring three times post-reaction unreacted NAL. The average value of peak areas of blank-test (after performing the reaction step without addition of the test substances) NAL is the average value of areas obtained by measuring three times blank-test (after performing the reaction step without addition of the test substances) NAL.
(§14) The reactions were each performed on a 96-well plate, and the number of samples of each case was set to n=3. In addition, as controls, reaction solutions including the solvent alone were prepared. The reaction solutions were prepared so as to have a NAC or NAL concentration of 5 μmon. To the reaction solutions after the lapse of 24 hours, a trifluoroacetic acid (TFA) aqueous solution was added such that the final concentration became 0.5% (v/v) TFA. Subsequently, HPLC was performed for measurements by two detection methods that were light absorption detection using a photodiode array (PDA) detector, and fluorescence detection using a fluorescence detector.

[2] = Average score of NAC and NAL depletion and prediction of skin allergenicity, fluorescence method; conditions: for Average score: test substance solution 1 mmol/L
Experimental: (§15) The average value (Average Score) of NAC and NAL depletion percents is calculated. In the resultant value, the second decimal place is rounded off.
(§16) Average value (Average Score) of NAC and NAL depletion percents=(NAC depletion percent+NAL depletion percent)/2
(§17) The depletion percent of at least one of NAC or NAL or the average score of the depletion percents of NAC and NAL is calculated, and whether or not the test substances are “allergenic substances” or “non-allergenic substances” is determined:
(§18) (1) in a case of performing evaluation based on the average value of the depletion percent of NAC and the depletion percent of NAL,
(§19) In the following Tables, S represents as being an allergenic substance and NS represents as being a non-allergenic substance.

[3] = NAC depletion percent, HPLC-UV detection (281 nm)
Experimental: as §1, with “11.6” for “12.6”, “NAC” for “NAL”, “8.0);” for “10.2);”, “mixer” for “mixture”, “mmol/L).” for “mmol/L NAL solution).”, “μmon).” for “μmol/L).”
as §2, §3, §4, §5, §6, §7, §8, §9, §10, §11
(§20) NAC depletion percent (% depletion)=[1−(Average value of peak areas of post-reaction unreacted NAC/Average value of peak areas of blank-test (after performing the reaction step without addition of the test substances) NAC)]×100
(§21) The average value of peak areas of the post-reaction unreacted NAC is the average value of areas obtained by measuring three times post-reaction unreacted NAC. The average value of peak areas of blank-test (after performing the reaction step without addition of the test substances) NAC is the average value of areas obtained by measuring three times blank-test (after performing the reaction step without addition of the test substances) NAC.
as §14

[4] = NAC depletion percent, HPLC-fluorescence detection
Experimental: as §1, with “11.6” for “12.6”, “NAC” for “NAL”, “8.0);” for “10.2);”, “mixer” for “mixture”, “mmol/L).” for “mmol/L NAL solution).”, “μmon).” for “μmol/L).”
as §2, §3, §4, §5, §6, §7, §8, §9, §10, §11, §20, §21, §14

[5] = NAL depletion percent, HPLC-UV detection (281 nm)
Experimental: as §1, §2, §3, §4, §5, §6, §7, §8, §9, §10, §11, §12, §13, §14

[6] = Average score of NAC and NAL depletion and prediction of skin allergenicity, UV method; conditions: for Average score: test substance solution 1 mmol/L
Experimental: as §15, §16, §17, §18, §19

[7] = Fluorescence method, non-allergenic substance
[8] = Fluorescence method, skin allergenicity prediction
[9] = Reference (UV method), non-allergenic substance
[10] = Reference (UV method), skin allergenicity prediction
[11] = single substance, test substance solution 1 mmol/L, fluorescence method
[12] = single substance, fluorescence method
[13] = single substance, test substance solution 1 mmol/L, Reference (UV method)
[14] = single substance, Reference (UV method)
[15] = single substance, fluorescence method, criterion average score […]
[16] = single substance, Reference (UV method), criterion average score […]

Row | SMILES | NAL depletion (%) [1, 7] [%] | Prediction result [2, 8] | NAC depletion (%) [3, 9] [%] | NAC depletion (%) [4, 7] [%] | NAL depletion (%) [5, 9] [%] | Prediction result [6, 10] | other results
1 | CCCCBr [1-Bromobutane] | 0.0 | NS (NS represents as being a non-allergenic substance) | 0.1 | 0.0 | 2.4 | NS (NS represents as being a non-allergenic substance) | 
2 | CC(=O)C(C)=O [2,3-Butanedione] |  |  |  |  |  |  | NAL depletion (%) [1, 11]: 17.7%; Average score [2, 12]: 31.4%; NAC depletion (%) [3, 13]: 41.2%; NAC depletion (%) [4, 11]: 45.2%; NAL depletion (%) [5, 13]: 25.5%; Average score [6, 14]: 33.4%
3 | O=[N+]([O-])c1ccc(Cl)c([N+](=O)[O-])c1 [2,4-Dinitrochlorobenzene] |  |  |  |  |  |  | NAL depletion (%) [1, 11]: 0.0%; Prediction result [2, 15]: S (S represents as being an allergenic substance); Average score [2, 12]: 45.8%; NAC depletion (%) [3, 13]: 89.3%; NAC depletion (%) [4, 11]: 91.6%; NAL depletion (%) [5, 13]: 6.1%; Prediction result [6, 16]: S (S represents as being an allergenic substance); Average score [6, 14]: 47.7%
4 | CC(=O)C1CCCCC1=O (stereo not drawn) [2-Acetylcyclohexanone] | 0.0 | NS (NS represents as being a non-allergenic substance) | 1.3 | 3.5 | 0.3 | NS (NS represents as being a non-allergenic substance) | 
5 | C=C(C)C(=O)OCC(C)O (stereo not drawn) [2-Hydroxypropyl methacrylate] | 0.2 | NS (NS represents as being a non-allergenic substance) | 2.4 | 2.0 | 2.2 | NS (NS represents as being a non-allergenic substance) | 
6 | O=C(O)c1ccc(O)cc1 [4-Hydroxybenzoic acid] | 0.1 | NS (NS represents as being a non-allergenic substance) | 0.0 | 2.9 | −1.4 | NS (NS represents as being a non-allergenic substance) | 
7 | COc1ccc(C(C)=O)cc1 [4′-Methoxyacetophenone] | 0.0 | NS (NS represents as being a non-allergenic substance) | 3.3 | 1.2 | 3.3 | NS (NS represents as being a non-allergenic substance) | 
8 | CC(=O)C(=O)CC(C)C [5-Methyl-2,3-hexanedione] |  |  |  |  |  |  | NAL depletion (%) [1, 11]: 26.1%; Prediction result [2, 15]: S (S represents as being an allergenic substance); Average score [2, 12]: 20.4%; NAC depletion (%) [3, 13]: 6.4%; NAC depletion (%) [4, 11]: 14.8%; NAL depletion (%) [5, 13]: 34.8%; Prediction result [6, 16]: S (S represents as being an allergenic substance); Average score [6, 14]: 20.6%
9 | Cc1ccc2oc(=O)ccc2c1 [6-Methylcoumarin] | 0.1 | NS (NS represents as being a non-allergenic substance) | 0.0 | 1.3 | 1.0 | NS (NS represents as being a non-allergenic substance) | 
10 | O=C(OCc1ccccc1)c1ccccc1 [Benzyl benzoate] |  |  |  |  |  |  | NAL depletion (%) [1, 11]: 0.3%; Average score [2, 12]: 0.1%; NAC depletion (%) [3, 13]: 0.0%; NAC depletion (%) [4, 11]: 0.0%; NAL depletion (%) [5, 13]: 2.8%; Average score [6, 14]: 1.4%
11 | O=c1ccc2ccccc2o1 [Coumarin] | 0.4 | NS (NS represents as being a non-allergenic substance) | 0.5 | 1.2 | 3.9 | NS (NS represents as being a non-allergenic substance) | 
12 | CCOC(=O)c1ccccc1C(=O)OCC [Diethyl phthalate] | 0.2 | NS (NS represents as being a non-allergenic substance) | 0.0 | 0.0 | 1.7 | NS (NS represents as being a non-allergenic substance) | 
13 | CC(C)=CCCC(C)=CCCC(C)=CC=O [Farnesal] |  |  |  |  |  |  | NAL depletion (%) [1, 11]: 4.9%; Prediction result [2]: S (key: S represents as being an allergenic substance; NS represents as being a non-allergenic substance); Average score [2, 12]: 13.6%; NAC depletion (%) [3, 13]: 17.2%; NAC depletion (%) [4, 11]: 22.4%; NAL depletion (%) [5, 13]: 8.8%; Prediction result [6]: S (key: S represents as being an allergenic substance; NS represents as being a non-allergenic substance); Average score [6, 14]: 13.0%
14 | OCC(O)CO [Glycerol] | 0.0 | NS (NS represents as being a non-allergenic substance) | 0.3 | 0.2 | 0.7 | NS (NS represents as being a non-allergenic substance) | 
15 | CCCCCC [Hexane] |  | NS (NS represents as being a non-allergenic substance) |  |  |  | NS (NS represents as being a non-allergenic substance) | NAL depletion (%) [1]: 0.0%; NAC depletion (%) [3]: 0.2%; NAC depletion (%) [4]: 0.0%; NAL depletion (%) [5]: 0.9%
16 | CC(C)O [Isopropanol] | 4.6 | NS (NS represents as being a non-allergenic substance) | 0.1 | 1.1 | 2.8 | NS (NS represents as being a non-allergenic substance) | 
17 | CCCCCCCCCCCCCC(=O)OC(C)C [Isopropyl myristate] | 5.8 | NS (NS represents as being a non-allergenic substance) | 0.0 | 0.4 | 1.8 | NS (NS represents as being a non-allergenic substance) | 
